Among the test systems are UACC-62 melanoma; A549 NSCLC; SF-295 CNS; T-47D breast; SK-MEL-28 melanoma; ACHN renal; HCC-2998 colon; LOX IMVI melanoma; MOLT-4 leukemia; COLO 205 colon; EKVX NSCLC; NCI-H226 lung; KM12 colon; MCF7 breast.
Experiment in all cases: NCI tumour cell line growth inhibition, 48 h

The results in this text go back to PubChem BioAssay (NCI).

Each structure is given as a SMILES string.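 Cultured in 96-well plates, cells were exposed to test compound for 48 hours across five concentrations. Abbreviation: GI50, concentration required for 50% inhibition of growth. TGI marks complete inhibition of growth.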 Where only a bound is given, the exact number is not on record here.

Turning to `Clc1ccc2c(NCCNc3nc(-c4ccccc4)cc(-c4ccccc4)n3)ccnc2c1`, the GI50 is 1850 nM with UACC-62 melanoma; 2000 nM in the experiment with A549 NSCLC; 1760 nM in the experiment on SF-295 CNS; 1500 nM with T-47D breast; 1760 nM in the experiment with SK-MEL-28 melanoma; 1700 nM in the experiment on ACHN renal. Further, the TGI in the experiment on UACC-62 melanoma came to 3.37 µM; in the experiment with A549 NSCLC it was 3.78 µM; in the experiment on SF-295 CNS, 3.39 µM; in the experiment on T-47D breast it was 3.47 µM; with SK-MEL-28 melanoma it was 3.23 µM; in the experiment on ACHN renal, 3.1 µM.

For `Nc1nc(=O)n(C2OC(CO)C(O)C2O)cc1F` (configuration not stated), the TGI in the experiment on HCC-2998 colon was over 100 µM; with UACC-62 melanoma it was 5.3 µM; in the experiment with A549 NSCLC, over 100 µM; with SF-295 CNS, over 100 µM; in the experiment with LOX IMVI melanoma, over 38 µM; in the experiment with MOLT-4 leukemia, 0.268 µM. For the same molecule, the TGI in the experiment on COLO 205 colon was over 100 µM; in the experiment with EKVX NSCLC it was over 40.9 µM; in the experiment with NCI-H226 lung it was over 100 µM; with SK-MEL-28 melanoma, over 100 µM; with KM12 colon it was over 100 µM; with MCF7 breast, over 100 µM.

For `c1ccc2cc3n[se]nc3cc2c1`, the TGI in the experiment with HCC-2998 colon, in the experiment on UACC-62 melanoma, in the experiment on A549 NSCLC, in the experiment with SF-295 CNS, in the experiment on LOX IMVI melanoma and in the experiment with MOLT-4 leukemia was over 100 µM throughout. The TGI in the experiment on COLO 205 colon, in the experiment on EKVX NSCLC, in the experiment on SK-MEL-28 melanoma, with KM12 colon and in the experiment with ACHN renal was over 100 µM each time.

Take `O=C(O)/C(=C\c1ccccc1)Cc1ccccc1`: the TGI in the experiment on HCC-2998 colon, with UACC-62 melanoma, in the experiment on A549 NSCLC, in the experiment with SF-295 CNS, in the experiment on LOX IMVI melanoma and in the experiment on T-47D breast was over 100 µM throughout. In addition, the TGI with MOLT-4 leukemia, in the experiment with COLO 205 colon, with EKVX NSCLC, in the experiment on NCI-H226 lung, in the experiment on SK-MEL-28 melanoma and in the experiment on KM12 colon was over 100 µM in each case. The TGI with ACHN renal and in the experiment with MCF7 breast was over 100 µM each time.

For the molecule `COc1cc2cc(C(=O)N3CC(COS(C)(=O)=O)c4c3cc([N+](=O)[O-])c3ccccc43)[nH]c2c(OC)c1OC` (configuration not stated), the TGI with HCC-2998 colon is over 31.6 µM; with UACC-62 melanoma, over 31.6 µM; with A549 NSCLC it was over 31.6 µM; with SF-295 CNS, over 31.6 µM; in the experiment with LOX IMVI melanoma, over 100 µM; in the experiment on T-47D breast, over 31.6 µM. Also, the TGI was over 100 µM with COLO 205 colon; over 31.6 µM in the experiment on EKVX NSCLC; over 100 µM with NCI-H226 lung; over 31.6 µM with SK-MEL-28 melanoma; over 31.6 µM with KM12 colon; over 31.6 µM in the experiment on ACHN renal. In the experiment with MCF7 breast, this molecule came in with a TGI of over 31.6 µM.
